For experiment [1], the system named is human BT-20 breast cancer cells. As to the kind of experiment: Apoptosis of breast cancer cells by transmission electron microscopy. The format is cell-based. The following applies: BT-20 cells, FIG. 6. The procedure: (§1) The effects of spiroketal pyrans on the survival of human breast cancer cells were examined in vitro. Cells were incubated at 37° C. for the indicated time periods with the title compounds. At the end of the incubation, cells were washed twice with PBS and fixed in 2% paraformaldehyde and examined by microscopy.

Experiment [2] deals with human breast cancer cells. As to the kind of experiment: Confocal laser scanning microscopy of microtubules (alpha-tubulin immunofluorescence) and mitotic index. The format is cell-based. Details: microtubule organization and cell morphology: dose or concentration left out as unconfirmed. The following applies: for microtubule organization and cell morphology: confocal microscopy, FIG. 7. The procedure: as §1
The effects of SPIKET-P1 on human breast cancer cells was also examined using confocal laser scanning microscopy^14. After fixing, the cells were permeabilized and non-specific binding sites were blocked with 2.5% BSA in PBS containing 0.1% Triton X-100 for 30 minutes. Tubulin expression was examined by immunofluorescence using a monoclonal antibody against α-tubulin (Sigma Chemical Co, St. Louis, Mo.) at a dilution of 1:1000 and an lanti-mouse IgG conjugated to FITC. Cells were washed in PBS and counterstained with toto-3 (Molecular Probes Inc., Eugene, Oreg.) for 10 minutes at a dilution of 1:1000. Cells were washed again with PBS and the coverslips were mounted with Vectashield (Vector Labs, Burlingame, Calif.) and viewed with a confocal microscope (Bio-Rad MRC 1024) mounted in a Nikon Labhophot upright microscope.
Digital images were saved on a Jaz disk and processed with Adobe Photoshop software (Adobe Systems, Mountain View, Calif.).
Vehicle-treated control cells are adherent with a well organized microtubule cytoskeleton, seen in the control (FIG. 7A) in green. […] Additionally, membrane blebbing and nuclear fragmentation was observed. Large vacuoles were present within treated cells. SPIKET-P-1 also affected the mitotic index, 2.25% of control cells were in mitosis whereas 0.0% of treated cells were in mitosis (23/1024 vs 0/1000, respectively).

The test system of experiment [3] is tubulin. As to conditions: cited from earlier work.

`OC[C@H]1CCCC2(CCC[C@H](CO)O2)O1` [SPIKET-P1, [(2R,8R)-8-(hydroxymethyl)-1,7-dioxaspiro[5,5]undec-2-yl]methan-1-ol]: the induction of apoptosis result in experiment [1] is “induce apoptosis in human breast cancer cells”. In addition, the “microtubule organization and cell morphology” value in experiment [2] was “destruction of the microtubule organization, membrane blebbing, and nuclear fragmentation consistent with apoptosis”; in experiment [2] (listed as SPA-1) it was “fewer, less organized microtubules”. Besides, the “mitotic index (cells in mitosis)” value in experiment [2] (treated cells 0/1000, control cells 2.25% (23/1024)) is given as 0.0%.

In the case of Spongistatin, the “inhibition of binding of vinc alkaloids / colchicin to tubulin” value in experiment [3] is on record as “inhibit the binding of vinc alkaloids (but not colchicin) to tubulin”. As for `OC1CC(CCOCc2ccccc2)OC2(C1)CC(O)CC(CCOCc1ccccc1)O2` (stereo not shown) [NP-25, 1,13-dibenzyloxy-5,9-dihydroxy-spiroketal], the induction of apoptosis result in experiment [1] was “induce apoptosis in human breast cancer cells”. The same measure, in the same setting: the entry for `c1ccc(COC[C@H]2CCCC3(CCC[C@H](COCc4ccccc4)O3)O2)cc1` [SPIKET-P1-P, Benzyl-protected SPIKET-P1] is “induce apoptosis in human breast cancer cells”.

These data come from patent US6512003B2, “Synthetic spiroketal pyranes as potent anti-cancer agents and use” (Parker Hughes Institute, priority 1998, dated 2003).
